Key:
[1] = in vivo; cited from earlier work
[2] = test system: iliac atherosclerotic plaques; test: Catheter-based NIRF sensing of ICG enhancement of atherosclerotic plaques; assay type: in vivo, rabbit; details: immediately after injection; 6 mg ICG in 1.2 mL
Method: White rabbits (weight 3-3.5 kg) underwent balloon-denudation of iliac arteries and hypercholsterolemic diet in order to develop inflamed atheromata. The rabbits were placed on a high-cholesterol diet (1% cholesterol and 5% peanut oil) for 1 week prior to balloon injury. After an overnight fast, anesthesia was induced with IM ketamine (35 mg/kg) and xylazine (5 mg/kg). Anesthesia was continued using inhaled isoflurane (1-5% v/v) and supplemental 02. Next a 3F Fogarty arterial embolectomy catheter was advanced into the common iliac vessels of the rabbits. The balloon was inflated to tension (0.6-1.0 ml). A total of 3 pullbacks were performed in the left and right iliac artery, as well as the infrarenal aorta. Following injury, the introducer was removed and the left carotid artery was ligated. Rabbits continued on the high-cholesterol diet for 4-8 weeks. […]
Anesthesia was initiated as above, and a 5F introducer was placed into the right carotid artery and then delivered to the descending thoracic aorta under fluoroscopic guidance. […] The maximum voltage was recorded from each digitized pullback. The in vivo plaque target-to-background ratio (TBR) was thus calculated as TBR=(maximum voltage detected from all pullbacks)/(background voltage). […]

[3] = test system: atherosclerotic plaques in the iliac and aorta; test: Ex vivo fluorescence reflectance imaging (FRI) of resected atherosclerotic aortoiliac vessels; set-up: species or system rabbit; details: excitation/emission 762 nm/800 nm
Method: Resected atherosclerotic aortoiliac vessels underwent fluorescence reflectance imaging (FRI) with an excitation/emission filter 762 nm/800 nm and a 5 second exposure time. Light images were also obtained with an exposure time of 100 msec. Region-of-interest (ROI) analysis was performed using visual identification of plaques and normal background on FRI images. The plaque target-to-background ratio was defined as: TBR=(plaque ROI signal)/(adjacent vessel background ROI signal).

[4] = cited from earlier work
[5] = cited from earlier work; remark: listed apart in the source
[6] = test system: plaque neovessels; test: Correlative fluorescence microscopy of atheromata sections; set-up: species or system rabbit; details: x200, FIG. 4(f)
Method: After imaging, vessels were immersed in 4% paraformaldehyde for 24 hours. Vascular rings were then frozen in an optical cutting temperature compound for histopathological analysis. Serial 5 micrometer cryosections of rabbit atheromata were cut. […] Tissue sections were viewed using a microscope and images were captured using a digital camera.

## CC1(C)C(/C=C/C=C/C=C/C=C2\N(CCCCS(=O)(=O)O)c3ccc4ccccc4c3C2(C)C)=[N+](CCCCS(=O)(=O)[O-])c2ccc3ccccc3c21 [ICG, Indocyanine green]
[1]
  severe side effect incidence: less than 0.1%
[2]
  NIRF signal, voltage recordings from the intravascular space of the iliac arteries: > 10 V
[3]
  ex vivo plaque signal-to-background: very high plaque signal-to-background
[4]; bound to proteins
  time usable as intravascular angiographic agent: about 40 minutes
[4]; in vivo
  route of excretion: rapidly excreted unmetabolized into the bile
  time to elimination from the bloodstream: about 2 hours
[5]
  solubility in saline: not readily soluble in saline
[6]
  ICG signal in plaque neovessel by fluorescence microscopy: strong ICG signal in a plaque neovessel

Source: patent US20100092389A1 (The General Hospital Corporation, priority 2008, published 2010)
